“Also recorded” adds a separate entry of the source. Counter-ions that a name gives are not always drawn.

Data on 2 compounds can be found in patent US11510886B2, “Metformin amino acid compounds and methods of using the same” (Laboratorios Silancs S.A. DE C.V., priority 2016, dated 2022).

The target of one series is T1, GPBP (Homo sapiens, UniProt Q9Y5P4).
T1 sequence (Q9Y5P4 1-624): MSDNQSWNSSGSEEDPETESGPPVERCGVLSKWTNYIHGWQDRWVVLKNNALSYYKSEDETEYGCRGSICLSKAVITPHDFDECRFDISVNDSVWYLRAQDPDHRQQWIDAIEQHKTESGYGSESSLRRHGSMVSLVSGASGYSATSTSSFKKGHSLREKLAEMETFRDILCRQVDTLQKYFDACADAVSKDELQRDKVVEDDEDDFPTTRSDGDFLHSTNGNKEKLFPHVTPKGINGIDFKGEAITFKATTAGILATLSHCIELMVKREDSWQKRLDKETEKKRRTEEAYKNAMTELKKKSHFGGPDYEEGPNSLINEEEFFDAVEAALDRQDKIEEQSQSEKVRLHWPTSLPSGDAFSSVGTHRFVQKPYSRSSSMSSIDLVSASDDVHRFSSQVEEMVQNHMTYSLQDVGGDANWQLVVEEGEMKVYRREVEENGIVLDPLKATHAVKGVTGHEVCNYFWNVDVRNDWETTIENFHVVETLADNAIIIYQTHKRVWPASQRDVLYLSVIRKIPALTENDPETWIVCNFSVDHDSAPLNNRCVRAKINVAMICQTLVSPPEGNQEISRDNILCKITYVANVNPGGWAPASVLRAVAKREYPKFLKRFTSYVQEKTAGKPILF
The series is described as follows: In vitro (auto)phosphorylation of recombinant FLAG-GPBP. Type of series: biochemical. Set-up: made in house; host or cells: Pichia pastoris. As to conditions: for GPBP in vitro kinase activity (autophosphorylation): β-glycerophosphate phosphorylation solution pH 7.0, [γ-32P]ATP, autoradiography (FIG. 64). The procedure: FIG. 64. […]. Recombinant FLAG-GPBP, in similar quantities, expressed in yeast Pichia pastoris (Invitrogen) and purified with anti-FLAG resin (Sigma), as described above (Raya et al. J Biol Chem. 1999; […]. The reaction cocktails (25 μl) were incubated at 30° C. and stirred (350 rpm) for 15 minutes, then analyzed using PAGE standard procedures in the presence of SDS and β-mercaptoethanol, and electrotransferred to PVDF membrane (Immobilon P, Millipore). Membranes were then exposed to autoradiography (32P) and subsequently sent for incubation with anti-FLAG antibodies, peroxidase-labelled; ECL Prime (GE Healthcare) (WB anti-FLAG) was used for developing.
[…]. Then, electrophoresis in 10% polyacrylamide gel and electroblotting to PVDF membrane were applied. Autoradiography was applied to membranes by exposure to photographic films (Amersham Hyperfilm MP, GE Healthcare Lifesciences). After autoradiography, the membranes were blocked with 5% skimmed milk in TBST and incubated with anti-FLAG (Sigma) monoclonal antibodies and secondary antibodies against mouse IgG conjugated to peroxidase (Promega).

A short description of another series: in vivo. As to conditions: female, Sprague Dawley, rat, plasma, po, 250 mg/kg.
The next series concerns C2C12 myotubes. Put plainly: Glucose in C2C12 myotubes cultured with M1 macrophage conditioned medium. Particulars: macrophages treated with 10 mM, glucose adjusted to 100 mg/100 mL (FIG. 95). Type of series: cell-based, Mice. The procedure: FIG. 95. C2C12 myotubes, treated with a conditioned RAW264.7 M1 macrophages medium (stimulated with LPS and IFN-γ [M1]), accumulate glucose in the culture medium: SLN compounds reduce the “hyperglycemic” effect of the M1 medium. […]; then, the culture media were collected, and their glucose concentration adjusted to 100 mg/100 mL and used to culture C2C12 myoblasts that had been previously differentiated to myotubes in DMEM supplemented with 2% horse serum for 5 days. The glucose concentration in myotubes was determined at several times with a Glucocard (Arkray). C2C12 myotubes, cultured with conditioned media of non-stimulated (cells) macrophages, or similarly stimulated but not treated with a SLN (M1), were used as controls. The initial glucose levels (time 0) are used as a reference (100%) in each of the series.
[…]. Then the culture media were collected, their glucose concentration adjusted to 100 mg/100 mL and used to culture C2C12 myoblasts that had been previously differentiated to myotubes in DMEM supplemented with 2% horse serum for 5 days. The glucose concentration of the myotube cultures was determined at different times with Glucocard (Arkray). The controls used were the C2C12 cultured with media conditioned with no stimulated macrophages (cells) or with M1 conditioned media. The initial glucose levels (time 0) were used as a reference (100%) in each series.

For series [1], the system named is RAW264.7 macrophages and L1 adipocytes co-cultures. The series is described as follows: Glucose consumption in macrophage and adipocyte co-cultures. Type of series: cell-based, Mice. Particulars: 10 mM, 30 hours (FIG. 80).
The subject of series [2] is GPBP, LKB1/STRADα/MO25, AMPK, AS160. The series is described as follows: In vitro phosphorylation of GPBP with LKB1 complex, AMPK and AS160. As to conditions: LKB1 complex without GPBP.

As for `CN(C)C(=N)N=C(N)N` [Metformin hydrochloride, metformin hydrochloride, reference compound], the “GPBP in vitro kinase activity (autophosphorylation)” value at GPBP is “moderate activator”. In “in vivo”, the AUC(0-t) turned out to be 82000 ng·h/mL, the concentration peaked (Cmax) at 16300 ng/mL, the Tmax stood at 30 min and the concentration at 0.5 h was 16300 ± 5100 ng/mL. For the same compound, in “in vivo”, the concentration at 1 h stood at 14800 ± 5070 ng/mL, the concentration at 2 h was 11900 ± 3240 ng/mL, the concentration at 4 h stood at 6830 ± 1650 ng/mL and the concentration at 8 h came out at 3140 ± 1050 ng/mL. In the series “in vivo”, this compound showed a concentration at 24 h of 190 ± 100 ng/mL. Further, in the series with C2C12 myotubes (listed as SLN1, hydrochloride), the “glucose concentration in myotubes kept in M1 macrophage-conditioned medium” value (shortened to “glucose concentration in myotubes kept”) was “slowed progression towards “hyperglycemia””. Also, in the series with C2C12 myotubes (listed as metformin HCl, hydrochloride), the “glucose concentration in myotubes kept” value is recorded as “slowed down the progression towards hyperglycemia”.

With metformin lysinate, in series [1], the “glucose consumption of co-cultures” value is given as “stronger”. Also, the “GPBP inhibition depending on reaction medium” value on GPBP (Na buffer: 25 mM Tris-HCl pH 7.4, 150 mM NaCl (FIG. 66)) was “inhibits GPBP in Na buffer”. Also, on GPBP (in vitro assays, pH 7.0, applicant's estimate), the “active ingredient concentration corresponding to 1 mM” value was 8.6 µM. The “GPBP in vitro kinase activity (autophosphorylation)” value on GPBP (listed as SLN10) is listed as “inhibits GPBP in vitro kinase activity; also recorded: kinase activity inhibitors”. Further, the “LKB1 autophosphorylation and STRADα phosphorylation” value in series [2] is “trigger a discrete LKB1 autophosphorylation”. Besides, the results for the “glucose concentration in myotubes kept” value with C2C12 myotubes and with C2C12 myotubes (listed as SLN10) were “reduced the glucose concentration to hypoglycemic levels” and “took them to “hypoglycemic” levels”, respectively.

Broadly, the AUC(0-t) is exposure summed from dosing to a finite time, without extrapolation to infinity. As a reminder, the Cmax is the maximum level reached in the sampled fluid or tissue. By Tmax is commonly meant the time at which the peak concentration occurs.
